Experimental data as given in patent publication US10703733B2, “MCL-1 inhibitors” (Gilead Sciences, Inc., priority 2018, dated 2020).
Like-named read-outs stand apart in the source and are kept apart here.

What was measured:
[1] = target: MCL-1/Bim interaction (recombinant human MCL-1 protein, residues 171-327; biotinylated human Bim peptide, residues 51-76) (Homo sapiens (Human), UniProt Q07820); assay: MCL-1/Bim Binding AlphaLISA Assay; conditions: 0.0625 nM 6xHis-Mcl-1 (171-327), 0.0625 nM biotinylated-Bim peptide
MCL-1/Bim interaction (recombinant human MCL-1 protein, residues 171-327; biotinylated human Bim peptide, residues 51-76), sequence (Q07820 171-327): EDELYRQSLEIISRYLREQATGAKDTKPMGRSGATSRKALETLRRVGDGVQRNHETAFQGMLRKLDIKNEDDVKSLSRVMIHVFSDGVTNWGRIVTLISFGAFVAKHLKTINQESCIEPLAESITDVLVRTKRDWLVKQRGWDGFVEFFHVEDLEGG
Summary of the method: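 Compounds first sat 1 h with MCL-1 (171-327, 0.0625 nM), followed by 2 h with biotin-Bim 51-76 (0.0625 nM), then sequential 1 h anti-His acceptor and streptavidin donor bead steps; buffer Hepes pH 7.5 with NaCl, Brij 35, DTT, BSA. AlphaScreen signal converted to % inhibition using DMSO (negative) and protein/peptide-free (positive) controls.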

SKBR3 cells = assay: SKBR3 Cell Viability Assay (CellTiter Glo); format: cell-based; conditions: CellTiter Glo luminescence, read-out: MCL-1 CV SKBR3 EC50
Summary of the method: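 Viability read as CellTiter Glo luminescence after 72 h of compound exposure at 37° C./5% CO2, using 6,000 SKBR3 cells per well in McCoy 5A with 10% FBS. Percent inhibition scaled between DMSO wells and 10 μM puromycin wells.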

SMILES	IC50 [1]	EC50 (SKBR3 cells; Homo sapiens, SK-BR-3, 72 h)	EC50 (SKBR3 cells; 72 hours)
COc1c(C(=O)N[S@@]2(=O)=NC(=O)c3ccc4c(c3)N(C[C@@H]3CC[C@H]3[C@@H](OC)/C=C/C[C@H](C)C2)C[C@@]2(CCCc3cc(Cl)ccc32)CO4)cn2c1C[C@@H](OC)C2 [Example 224]	0.195 nM	83.5 nM	
CCn1ccc(C(=O)N[S@@]2(=O)=NC(=O)c3ccc4c(c3)N(C[C@@H]3CC[C@H]3[C@@H](OC)/C=C/C[C@H](C)C2)C[C@@]2(CCCc3cc(Cl)ccc32)CO4)c1 [Example 130]	0.18 nM	152 nM	
COC1CN(C(=O)N[S@@]2(=O)=NC(=O)c3ccc4c(c3)N(C[C@@H]3CC[C@H]3[C@@H](O)/C=C/C[C@H](C)C2)C[C@@]2(CCCc3cc(Cl)ccc32)CO4)C1 [Example 266]	0.085 nM	53.8 nM	
CO[C@H]1/C=C/CCC[S@@](=O)(NC(=O)CCC2CC2)=NC(=O)c2ccc3c(c2)N(C[C@@H]2CC[C@H]21)C[C@@]1(CCCc2cc(Cl)ccc21)CO3 [Example 81]	0.5 nM	612 nM	
COC(=O)N1CC[C@@H](C(=O)N[S@@]2(=O)=NC(=O)c3ccc4c(c3)N(C[C@@H]3CC[C@H]3[C@@H](OC)/C=C/C[C@H](C)C2)C[C@@]2(CCCc3cc(Cl)ccc32)CO4)C1 [Example 438]	0.187 nM	278 nM	
CO[C@H]1/C=C/CCC[S@@](=O)(NC(=O)CC(F)(F)F)=NC(=O)c2ccc3c(c2)N(C[C@@H]2CC[C@H]21)C[C@@]1(CCCc2cc(Cl)ccc21)CO3 [Example 23]	0.8 nM	1450 nM	
COc1nn(C)cc1C(=O)N[S@@]1(=O)=NC(=O)c2ccc3c(c2)N(C[C@@H]2CC[C@H]2[C@@H](OC)/C=C/[C@H](Oc2cnccn2)[C@H](C)C1)C[C@@]1(CCCc2cc(Cl)ccc21)CO3 [Example 288]	0.144 nM	170 nM	
CO[C@H]1/C=C/C[C@H](C)[C@@H](C)[S@@](=O)(NC(=O)NC2CC2)=NC(=O)c2ccc3c(c2)N(C[C@@H]2CC[C@H]21)C[C@@]1(CCCc2cc(Cl)ccc21)CO3 [Example 414]	0.217 nM	154 nM	
CO[C@H]1/C=C/C[C@H](C)C[S@@](=O)(NC(=O)N2CCN(C(=O)OC(C)(C)C)[C@H](C)C2)=NC(=O)c2ccc3c(c2)N(C[C@@H]2CC[C@H]21)C[C@@]1(CCCc2cc(Cl)ccc21)CO3 [Example 382]	1.4 nM	562 nM	
CO[C@H]1/C=C/C[C@H](C)C[S@@](=O)(NC(=O)NC2CC3(C2)CC(F)(F)C3)=NC(=O)c2ccc3c(c2)N(C[C@@H]2CC[C@H]21)C[C@@]1(CCCc2cc(Cl)ccc21)CO3 [Example 437]	0.301 nM	123 nM	
C[C@H]1C/C=C/[C@H](OCC2CC2)[C@@H]2CC[C@H]2CN2C[C@@]3(CCCc4cc(Cl)ccc43)COc3ccc(cc32)C(=O)N=[S@](=O)(NC(=O)c2cnn(C)c2)C1 [Example 410]	0.194 nM	146 nM	
CO[C@H]1/C=C/CCC[S@@](=O)(NC(=O)CC(C)C)=NC(=O)c2ccc3c(c2)N(C[C@@H]2CC[C@H]21)C[C@@]1(CCCc2cc(Cl)ccc21)CO3 [Example 26]	1.8 nM	1690 nM	
CO[C@H]1/C=C/CCC[S@@](=O)(NC(=O)CCc2ccon2)=NC(=O)c2ccc3c(c2)N(C[C@@H]2CC[C@H]21)C[C@@]1(CCCc2cc(Cl)ccc21)CO3 [Example 58]	0.2 nM	664 nM	
CO[C@H]1/C=C/C[C@H](C)C[S@@](=O)(NC(=O)C2CC3(CCC3)C2)=NC(=O)c2ccc3c(c2)N(C[C@@H]2CC[C@H]21)C[C@@]1(CCCc2cc(Cl)ccc21)CO3 [Example 436]	0.886 nM	753 nM	
CCC(=O)N[S@]1(=O)=NC(=O)c2ccc3c(c2)N(C[C@@H]2CC[C@H]2[C@@H](OCCN2CCOCC2)/C=C/CCC1)C[C@@]1(CCCc2cc(Cl)ccc21)CO3 [Example 66]	2.7 nM		5830 nM

Other lines, results leading:

IC50 [1]	EC50 (SKBR3 cells; Homo sapiens, SK-BR-3, 72 h)	EC50 (SKBR3 cells; 72 hours)	SMILES
0.066 nM	95.8 nM		CO[C@H]1/C=C/C[C@H](C)C[S@@](=O)(NC(=O)COC2(C)CCOCC2)=NC(=O)c2ccc3c(c2)N(C[C@@H]2CC[C@H]21)C[C@@]1(CCCc2cc(Cl)ccc21)CO3 [Example 124]
0.064 nM	259 nM		CO[C@H]1/C=C/C[C@H](C)C[S@@](=O)(NC(=O)N[C@@H]2C[C@H]2F)=NC(=O)c2ccc3c(c2)N(C[C@@H]2CC[C@H]21)C[C@@]1(CCCc2cc(Cl)ccc21)CO3 [Example 364]
0.031 nM	35 nM		CO[C@H]1/C=C/C[C@H](C)C[S@@](=O)(NC(=O)N[C@H]2C[C@@H]2OC)=NC(=O)c2ccc3c(c2)N(C[C@@H]2CC[C@H]21)C[C@@]1(CCCc2cc(Cl)ccc21)CO3 [Example 160]
0.1 nM		207 nM	CO[C@H]1/C=C/C[C@H](C)[C@@H](C)[S@@](=O)(NC(=O)CCc2ccnn2C)=NC(=O)c2ccc3c(c2)N(C[C@@H]2CC[C@H]21)C[C@@]1(CCCc2cc(Cl)ccc21)CO3 [Example 49]
0.073 nM	62.2 nM		CO[C@H]1/C=C/C[C@H](C)C[S@@](=O)(NC(=O)N2CC(OC3CC3)C2)=NC(=O)c2ccc3c(c2)N(C[C@@H]2CC[C@H]21)C[C@@]1(CCCc2cc(Cl)ccc21)CO3 [Example 263]
0.133 nM	395 nM		CO[C@H]1/C=C/C[C@H](C)C[S@@](=O)(NC(=O)N[C@@H]2C[C@H]2C)=NC(=O)c2ccc3c(c2)N(C[C@@H]2CC[C@H]21)C[C@@]1(CCCc2cc(Cl)ccc21)CO3 [Example 433]
0.1 nM	328 nM		CO[C@H]1/C=C/CCC[S@@](=O)(NC(=O)CCc2cccnc2)=NC(=O)c2ccc3c(c2)N(C[C@@H]2CC[C@H]21)C[C@@]1(CCCc2cc(Cl)ccc21)CO3 [Example 40]
0.048 nM	61 nM		CO[C@H]1/C=C/C[C@H](C)C[S@@](=O)(NC(=O)C2CC(C)(OC)C2)=NC(=O)c2ccc3c(c2)N(C[C@@H]2CC[C@H]21)C[C@@]1(CCCc2cc(Cl)ccc21)CO3 (some centres unmarked) [Example 169]
0.1 nM	60.4 nM		CO[C@H]1/C=C/C[C@H](C)C[S@@](=O)(NC(=O)N[C@H]2C[C@@H](COC(=O)N(C)C)C2)=NC(=O)c2ccc3c(c2)N(C[C@@H]2CC[C@H]21)C[C@@]1(CCCc2cc(Cl)ccc21)CO3 [Example 336]
0.131 nM	147 nM		CO[C@H]1/C=C/C[C@H](C)C[S@@](=O)(NC(=O)N[C@@H]2[C@@H]3COC[C@@H]32)=NC(=O)c2ccc3c(c2)N(C[C@@H]2CC[C@H]21)C[C@@]1(CCCc2cc(Cl)ccc21)CO3 [Example 449]
0.1 nM	176 nM		COc1ncc(C(=O)N[S@@]2(=O)=NC(=O)c3ccc4c(c3)N(C[C@@H]3CC[C@H]3[C@@H](OC)/C=C/C[C@H](C)C2)C[C@@]2(CCCc3cc(Cl)ccc32)CO4)c(OC)n1 [Example 271]
0.086 nM	53.1 nM		COc1nn(C)cc1C(=O)N[S@@]1(=O)=NC(=O)c2ccc3c(c2)N(C[C@@H]2CC[C@H]2[C@@H](OCCN2CCOCC2)/C=C/C[C@H](C)C1)C[C@@]1(CCCc2cc(Cl)ccc21)CO3 [Example 366]
0.043 nM	37.2 nM		CO[C@H]1/C=C/C[C@H](C)C[S@@](=O)(NC(=O)c2cnn(C)c2)=NC(=O)c2ccc3c(c2)N(C[C@@H]2CC[C@H]21)C[C@@]1(CCCc2cc(Cl)ccc21)CO3 [Example 148]
0.082 nM	54.2 nM		COCC12CC(NC(=O)N[S@@]3(=O)=NC(=O)c4ccc5c(c4)N(C[C@@H]4CC[C@H]4[C@@H](OC)/C=C/C[C@H](C)C3)C[C@@]3(CCCc4cc(Cl)ccc43)CO5)(C1)C2 [Example 211]
0.1 nM	262 nM		CO[C@H]1/C=C/CCC[S@@](=O)(NC(=O)CCn2cccn2)=NC(=O)c2ccc3c(c2)N(C[C@@H]2CC[C@H]21)C[C@@]1(CCCc2cc(Cl)ccc21)CO3 [Example 39]
0.053 nM	72 nM		CO[C@H]1/C=C/C[C@H](C)C[S@@](=O)(NC(=O)N2CC(C3COC3)C2)=NC(=O)c2ccc3c(c2)N(C[C@@H]2CC[C@H]21)C[C@@]1(CCCc2cc(Cl)ccc21)CO3 [Example 261]
0.051 nM	28.6 nM		C[C@@H]1[C@@H](C)C/C=C/[C@H](O)[C@@H]2CC[C@H]2CN2C[C@@]3(CCCc4cc(Cl)ccc43)COc3ccc(cc32)C(=O)N=[S@]1(=O)NC(=O)c1cc2n(c1)C[C@H](CN1CCOCC1)OC2 [Example 327]
0.066 nM	60.7 nM		COC(=O)N1CCN(C(=O)N[S@@]2(=O)=NC(=O)c3ccc4c(c3)N(C[C@@H]3CC[C@H]3[C@@H](OC)/C=C/C[C@H](C)C2)C[C@@]2(CCCc3cc(Cl)ccc32)CO4)CC1 [Example 245]
0.056 nM	85.8 nM		COc1nn(C2CC2)cc1C(=O)N[S@@]1(=O)=NC(=O)c2ccc3c(c2)N(C[C@@H]2CC[C@H]2[C@@H](OC)/C=C/C[C@H](C)C1)C[C@@]1(CCCc2cc(Cl)ccc21)CO3 [Example 262]
0.049 nM	18.5 nM		COC[C@H]1Cn2cc(C(=O)N[S@@]3(=O)=NC(=O)c4ccc5c(c4)N(C[C@@H]4CC[C@H]4[C@@H](O)/C=C/C[C@H](C)[C@H]3C)C[C@@]3(CCCc4cc(Cl)ccc43)CO5)cc2CO1 [Example 344]
0.058 nM	530 nM		COc1nn(C)cc1C(=O)N[S@@]1(=O)=NC(=O)c2ccc3c(c2)N(C[C@@H]2CC[C@H]2[C@@H](OC)/C=C/[C@H](OC(F)F)[C@H](C)C1)C[C@@]1(CCCc2cc(Cl)ccc21)CO3 [Example 400]
0.029 nM	25 nM		COC1CCN(C2CN(C(=O)N[S@@]3(=O)=NC(=O)c4ccc5c(c4)N(C[C@@H]4CC[C@H]4[C@@H](OC)/C=C/C[C@H](C)C3)C[C@@]3(CCCc4cc(Cl)ccc43)CO5)C2)CC1 [Example 287]
